± gives the standard deviation of the averaged measurements.
Experiments:
Conditions in all cases: 72 h
[1] = tested on: Vero E6; assay: drug sensitivity score (DSS) for viability; higher = more toxic; extreme values may be limits of the assay
[2] = tested on: U2OS; assay: as above
[3] = tested on: HepG2; assay: as above
[4] = tested on: Calu-3; assay: as above
[5] = tested on: Caco-2; assay: as above
[6] = tested on: Vero E6; assay: cell viability relative to DMSO; higher = less toxic
[7] = tested on: U2OS; assay: as above
[8] = tested on: HepG2; assay: as above
[9] = tested on: Calu-3; assay: as above
[10] = tested on: Caco-2; assay: as above
[11] = tested on: Vero E6; assay: relative viability EC50 (midpoint between 100% and the lowest measured viability); higher = less toxic
[12] = tested on: U2OS; assay: as above
[13] = tested on: HepG2; assay: as above
[14] = tested on: Calu-3; assay: as above
[15] = tested on: Caco-2; assay: as above

| Compound | drug sensitivity score [1] | drug sensitivity score [2] | drug sensitivity score [3] | drug sensitivity score [4] | drug sensitivity score [5] | cell viability ([6]; 1 nM) [%] | cell viability ([6]; 10 nM) [%] | cell viability ([6]; 100 nM) [%] | cell viability ([6]; 1000 nM) [%] | cell viability ([6]; 10000 nM) [%] | cell viability ([7]; 1 nM) [%] | cell viability ([7]; 10 nM) [%] | cell viability ([7]; 100 nM) [%] | cell viability ([7]; 1000 nM) [%] | cell viability ([7]; 10000 nM) [%] | cell viability ([8]; 1 nM) [%] | cell viability ([8]; 10 nM) [%] | cell viability ([8]; 100 nM) [%] | cell viability ([8]; 1000 nM) [%] | cell viability ([8]; 10000 nM) [%] | cell viability ([9]; 1 nM) [%] | cell viability ([9]; 10 nM) [%] | cell viability ([9]; 100 nM) [%] | cell viability ([9]; 1000 nM) [%] | cell viability ([9]; 10000 nM) [%] | cell viability ([10]; 1 nM) [%] | cell viability ([10]; 10 nM) [%] | cell viability ([10]; 100 nM) [%] | cell viability ([10]; 1000 nM) [%] | cell viability ([10]; 10000 nM) [%] | relative viability EC50 [11] [µM] | relative viability EC50 [12] [µM] | relative viability EC50 [13] [µM] | relative viability EC50 [14] [µM] | relative viability EC50 [15] [µM] |
| --- | --- | --- | --- | --- | --- | --- | --- | --- | --- | --- | --- | --- | --- | --- | --- | --- | --- | --- | --- | --- | --- | --- | --- | --- | --- | --- | --- | --- | --- | --- | --- | --- | --- | --- | --- |
| Nc1ccc(S(N)(=O)=O)cc1 [sulfanilamide] | 0 | 0 | 0 | 0 | 0 | 99.8 | 94.2 | 83.1 | 105 | 117 | 98.8 | 97 | 106 | 100 | 103 | 96.8 | 104 | 95.1 | 109 | 103 | 95 | 97.2 | 106 | 90.7 | 102 | 85.8 | 59.8 | 84.2 | 81.1 | 113 | > 10 | > 10 | > 10 | > 10 | > 10 |
| CC(=O)OCC1=C(C(=O)O)N2C(=O)[C@@H](NC(=O)Cc3cccs3)[C@H]2SC1 [cephalothin] | 0 | 0 | 0.8 | 0 | 0 | 100 | 97.6 | 93.6 | 88.7 | 110 | 104 | 98.4 | 94.1 | 99.4 | 104 | 87.9 | 102 | 86 | 86.8 | 86.3 | 117 | 94.2 | 104 | 103 | 106 | 110 | 103 | 102 | 98.5 | 119 | > 10 | > 10 | > 10 | > 10 | > 10 |
| C[C@@H]1C[C@H]2[C@@H]3C[C@H](F)C4=CC(=O)C=C[C@]4(C)[C@@]3(F)[C@@H](O)C[C@]2(C)[C@@]1(O)C(=O)CO [flumethasone] | 0 | 0 | 0 | 0 | 0 | 107 | 105 | 97 | 105 | 101 | 96.6 | 93.5 | 98.1 | 92.1 | 92.7 | 96.8 | 109 | 96.1 | 91.2 | 91.8 | 95.5 | 100 | 106 | 92.2 | 101 | 84.6 | 94.5 | 106 | 94.1 | 103 | > 10 | > 10 | > 10 | > 10 | > 10 |
| O=CN1CCC(C(=O)NCCN2CCC(=C3c4ccccc4C=Cc4ccccc43)CC2)CC1 [AT-1015] | 0 | 0 | 0.7 | 0 | 0 | 104 | 108 | 110 | 103 | 99.8 | 96.3 | 97.4 | 94.8 | 96.8 | 91.4 | 104 | 99.9 | 98.2 | 102 | 77 | 93.2 | 103 | 89.2 | 97.7 | 88.7 | 101 | 108 | 104 | 105 | 93.8 | > 10 | > 10 | > 10 | > 10 | > 10 |
| Nc1cc(C(Cl)=C(Cl)Cl)c(S(N)(=O)=O)cc1S(N)(=O)=O [clorsulon] | 0 | 0 | 0 | 0 | 0 | 105 | 106 | 96.8 | 102 | 100 | 96.9 | 97 | 100 | 97 | 102 | 100 | 106 | 94.2 | 101 | 100 | 90.1 | 97.6 | 104 | 97.2 | 101 | 94.8 | 90.5 | 98.5 | 93.8 | 102 | > 10 | > 10 | > 10 | > 10 | > 10 |
| CC(C)NCC(O)c1ccc([N+](=O)[O-])cc1 (stereo not given) [nifenalol] | 0 | 0 | 0 | 0 | 0 | 107 | 106 | 102 | 93.3 | 89.6 | 93.8 | 100 | 102 | 99.2 | 99.7 | 98.3 | 101 | 103 | 108 | 106 | 101 | 96.8 | 103 | 98.4 | 108 | 87.2 | 99.9 | 92.7 | 85.1 | 94 | > 10 | > 10 | > 10 | > 10 | > 10 |
| O=S1(=O)c2cccc3cccc(c23)N1CCCN1CCN(c2ccc(F)cc2)CC1 [fananserin] | 0 | 0 | 0 | 0 | 0 | 96.8 | 96.9 | 98.1 | 91.8 | 94.6 | 101 | 102 | 100 | 103 | 99.3 | 96.4 | 106 | 107 | 94 | 95.4 | 108 | 89.5 | 94.2 | 111 | 104 | 105 | 102 | 100 | 100 | 96.7 | > 10 | > 10 | > 10 | > 10 | > 10 |
| CCn1cc(C(=O)O)c(=O)c2ccc(C)nc21 [nalidixic-acid] | 0 | 0 | 0 | 0 | 0 | 113 | 107 | 104 | 101 | 89.4 | 100 | 95.8 | 100 | 98.3 | 104 | 106 | 108 | 90 | 102 | 95.6 | 96.8 | 89 | 100 | 93 | 102 | 96.3 | 94.4 | 93.2 | 99.9 | 96.8 | > 10 | > 10 | > 10 | > 10 | > 10 |
| C[C@@H](O)[C@@H]1NC(=O)[C@H](CCCCN)NC(=O)[C@@H](Cc2c[nH]c3ccccc23)NC(=O)[C@H](Cc2ccccc2)NC(=O)[C@@H](NC(=O)[C@H](N)Cc2ccccc2)CSSC[C@@H](C(=O)N[C@H](CO)[C@@H](C)O)NC1=O [octreotide] | 0 | 0 | 0 | 0 | 0 | 110 | 103 | 110 | 107 | 93 | 97.5 | 101 | 96 | 102 | 101 | 98.1 | 98.9 | 98.8 | 115 | 92.7 | 94.3 | 91.9 | 120 | 101 | 109 | 103 | 115 | 95.6 | 119 | 104 | > 10 | > 10 | > 10 | > 10 | > 10 |
| CS(=O)(=O)Nc1ccc2oc3c(OC(F)F)ccc(C(=O)Nc4c(Cl)cncc4Cl)c3c2c1 [oglemilast] | 0 | 0 | 0.6 | 1.3 | 0 | 102 | 95.9 | 96.2 | 90.5 | 99.8 | 97.6 | 104 | 97 | 101 | 94.2 | 96.1 | 87.9 | 93.3 | 86 | 89.8 | 91 | 88.4 | 100 | 92.7 | 81.1 | 108 | 101 | 92.2 | 103 | 90.1 | > 10 | > 10 | > 10 | > 10 | > 10 |
| Cc1ccc(S(=O)(=O)Cc2nc(-c3ccc(C(=O)NCc4cccnc4)cc3)oc2C)cc1 | 29.2 | 29.7 | 28.2 | 28.3 | 27.6 | 106 | 110 | 2.3 | 1.5 | 2.6 | 96.4 | 108 | 1.1 | -0.1 | -0.2 | 101 | 77.3 | 23.5 | 12.2 | 9.5 | 105 | 102 | 8.7 | 5.3 | 5.3 | 104 | 107 | 11.2 | 5.4 | 16.6 | 0.0372 | 0.0364 | 0.0249 | 0.036 | 0.0408 |
| CCCCC/C=C\C/C=C\C/C=C\C/C=C\CCCC(=O)Nc1ccc(O)cc1 [AM-404] | 0 | 0 | 0 | 0 | 0 | 105 | 106 | 92.9 | 102 | 96.5 | 96.9 | 95.2 | 100 | 93.8 | 96.3 | 110 | 104 | 93.9 | 107 | 87.6 | 104 | 93.1 | 96.8 | 99.1 | 102 | 95.3 | 98.2 | 103 | 100 | 95 | > 10 | > 10 | > 10 | > 10 | > 10 |
| N[C@H](Cc1ccccc1)C(=O)O [D-phenylalanine] | 0 | 0 | 0 | 0 | 0 | 108 | 100 | 104 | 101 | 96.1 | 95.6 | 101 | 96.5 | 95.2 | 99.8 | 99.7 | 109 | 90.4 | 105 | 100 | 98.3 | 95.2 | 111 | 102 | 105 | 94.6 | 101 | 90.8 | 95.8 | 93.8 | > 10 | > 10 | > 10 | > 10 | > 10 |
| CC(C)(C)NC[C@H](O)COc1cccc2c1CCCC2=O [levobunolol] | 0 | 0 | 0 | 0 | 0 | 105 ± 6.1 | 94.6 ± 2.8 | 95.6 ± 5.7 | 90.5 ± 3.1 | 101 ± 3.8 | 97.15 ± 0.78 | 102 ± 2 | 101.5 ± 0.21 | 101.3 ± 0.78 | 103 ± 0.21 | 100 ± 4.1 | 95.8 ± 2.8 | 112 ± 2 | 94.8 ± 4.3 | 97.9 ± 2.4 | 99.2 ± 9.6 | 102 ± 0.99 | 93.9 ± 3.1 | 103 ± 3.2 | 104.25 ± 0.071 | 88 ± 1.8 | 94.8 ± 5.9 | 96 ± 4.7 | 101.3 ± 0.64 | 97.2 ± 1.1 | > 10 | > 10 | > 10 | > 10 | > 10 |
